In ChEMBL document CHEMBL1201862, “PubChem BioAssay data set” (2004):
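Assay format: 96-well plates, 48-hour exposure. GI50: concentration for 50% inhibition of growth.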 Active and inactive are the calls of the source. No stated cut-off is given here; in the data, active = GI50 up to about 1.1 µM and inactive = higher.

Tests used:
Experiment in all cases: DTP human tumour cell line panel, 48 h
786-0 = tested on: 786-0
A498 = tested on: A498
A549 = tested on: A549
ACHN = tested on: ACHN
CAKI-1 = tested on: CAKI-1
CCRF-CEM = tested on: CCRF-CEM
COLO 205 = tested on: COLO 205
DLD-1 = tested on: DLD-1
DMS-114 = tested on: DMS-114
DMS-273 = tested on: DMS-273
EKVX = tested on: EKVX
HCC 2998 = tested on: HCC 2998
HCT-116 = tested on: HCT-116
HCT-15 = tested on: HCT-15
HL-60 = tested on: HL-60
HOP-62 = tested on: HOP-62
HOP-92 = tested on: HOP-92
HT-29 = tested on: HT-29
IGROV-1 = tested on: IGROV-1
K562 = tested on: K562
KM-20L2 = tested on: KM-20L2
KM12 = tested on: KM12
LOX IMVI = tested on: LOX IMVI
LXFL 529 = tested on: LXFL 529
M14 = tested on: M14
M19-MEL = tested on: M19-MEL
MOLT-4 = tested on: MOLT-4
Malme-3M = tested on: Malme-3M
NCI-H226 = tested on: NCI-H226
NCI-H23 = tested on: NCI-H23
NCI-H460 = tested on: NCI-H460
NCI-H522 = tested on: NCI-H522
OVCAR-3 = tested on: OVCAR-3
OVCAR-4 = tested on: OVCAR-4
OVCAR-5 = tested on: OVCAR-5
OVCAR-8 = tested on: OVCAR-8
RPMI-8226 = tested on: RPMI-8226
RXF 393 = tested on: RXF 393
SF-268 = tested on: SF-268
SF-295 = tested on: SF-295
SF-539 = tested on: SF-539
SK-MEL-28 = tested on: SK-MEL-28
SK-MEL-2 = tested on: SK-MEL-2
SK-MEL-5 = tested on: SK-MEL-5
SK-OV-3 = tested on: SK-OV-3
SNB-19 = tested on: SNB-19
SNB-75 = tested on: SNB-75
SNB-78 = tested on: SNB-78
SW-620 = tested on: SW-620
TK-10 = tested on: TK-10
U-251 = tested on: U-251
UACC-257 = tested on: UACC-257
UACC-62 = tested on: UACC-62
UO-31 = tested on: UO-31
XF498 = tested on: XF498
HOP-18 = tested on: HOP-18
SN12C = tested on: SN12C
SR = tested on: SR

Measured: GI50

COC1=CC(=O)C2C(C1=O)[C@@H]1c3ccccc3OC(C)(C)[C@H]21 (stereo partly specified)
inactive: 786-0 19.1 µM | A498 > 100 µM | A549 70 µM | ACHN 14.2 µM | CAKI-1 16.4 µM | CCRF-CEM 23.1 µM | COLO 205 19.2 µM | DLD-1 19.2 µM | DMS-114 20.7 µM | DMS-273 22.9 µM | EKVX 31.9 µM | HCC 2998 > 100 µM | HCT-116 16.2 µM | HL-60 16.4 µM | HOP-62 > 100 µM | HOP-92 20.5 µM | HT-29 28.1 µM | IGROV-1 > 10 µM | K562 19 µM | KM-20L2 27.1 µM | KM12 68.1 µM | LOX IMVI 14.2 µM | LXFL 529 18.7 µM | M14 18.7 µM | M19-MEL 20.2 µM | MOLT-4 10.1 µM | Malme-3M 18.9 µM | NCI-H226 19.1 µM | NCI-H23 17.5 µM | NCI-H460 60.5 µM | NCI-H522 13.9 µM | OVCAR-3 15.1 µM | OVCAR-4 17.9 µM | OVCAR-5 40.8 µM | OVCAR-8 21.7 µM | RPMI-8226 26.6 µM | RXF 393 14.1 µM | SF-268 29.6 µM | SF-295 71 µM | SF-539 23.5 µM | SK-MEL-28 17.4 µM | SK-MEL-2 26.3 µM | SK-MEL-5 27.4 µM | SK-OV-3 90.4 µM | SNB-19 7.73 µM | SNB-75 10.6 µM | SNB-78 18.8 µM | SW-620 23.6 µM | TK-10 21.1 µM | U-251 53.2 µM | UACC-257 29.2 µM | UACC-62 > 10 µM | UO-31 15.2 µM | XF498 18.1 µM
19.9 µM: HCT-15

CCCCN(CCCC)CC(C(=O)Nc1ccc([N+](=O)[O-])cc1[N+](=O)[O-])/C(C)=N\NC(=S)NN (stereo unspecified)
inactive: 786-0 > 100 µM | A498 > 100 µM | A549 > 100 µM | ACHN 56.6 µM | CCRF-CEM 49.4 µM | COLO 205 > 100 µM | DLD-1 > 100 µM | DMS-114 > 100 µM | DMS-273 > 100 µM | EKVX 65.6 µM | HCC 2998 > 100 µM | HCT-116 > 100 µM | HL-60 46 µM | HOP-62 > 100 µM | HOP-92 42.1 µM | HT-29 > 100 µM | IGROV-1 > 100 µM | K562 40.7 µM | KM-20L2 > 100 µM | KM12 > 100 µM | LOX IMVI > 100 µM | LXFL 529 > 100 µM | M14 > 100 µM | M19-MEL > 100 µM | MOLT-4 70 µM | Malme-3M > 100 µM | NCI-H226 > 100 µM | NCI-H23 > 100 µM | NCI-H460 > 100 µM | NCI-H522 25.5 µM | OVCAR-3 84.3 µM | OVCAR-5 > 100 µM | OVCAR-8 > 100 µM | RPMI-8226 50.1 µM | RXF 393 96.2 µM | SF-268 > 100 µM | SF-295 > 100 µM | SF-539 > 100 µM | SK-MEL-28 > 100 µM | SK-MEL-2 > 100 µM | SK-MEL-5 > 100 µM | SK-OV-3 > 100 µM | SNB-75 > 100 µM | SW-620 > 100 µM | TK-10 > 100 µM | U-251 > 100 µM | UACC-257 > 100 µM | UACC-62 > 100 µM | UO-31 26.9 µM | XF498 > 100 µM

Cc1c(C(=O)c2ccccc2C(=O)O)c2ccccc2n1C
> 100 µM: HCT-15
inactive: 786-0 > 100 µM | A498 > 100 µM | A549 > 100 µM | ACHN > 100 µM | CAKI-1 > 100 µM | CCRF-CEM > 100 µM | DLD-1 > 100 µM | DMS-114 > 100 µM | DMS-273 > 100 µM | EKVX > 100 µM | HCC 2998 > 100 µM | HCT-116 > 100 µM | HL-60 > 100 µM | HOP-62 > 100 µM | HT-29 > 100 µM | IGROV-1 > 100 µM | K562 > 100 µM | KM-20L2 > 100 µM | KM12 > 100 µM | LXFL 529 > 100 µM | M14 > 100 µM | M19-MEL > 100 µM | MOLT-4 > 100 µM | Malme-3M > 100 µM | NCI-H226 > 100 µM | NCI-H23 > 100 µM | NCI-H460 > 100 µM | OVCAR-3 > 100 µM | OVCAR-4 > 100 µM | OVCAR-5 > 100 µM | OVCAR-8 > 100 µM | RPMI-8226 > 100 µM | RXF 393 > 100 µM | SF-295 > 100 µM | SF-539 > 100 µM | SK-MEL-28 > 100 µM | SK-MEL-2 > 100 µM | SK-MEL-5 > 100 µM | SK-OV-3 > 100 µM | SNB-75 > 100 µM | SNB-78 > 100 µM | SW-620 > 100 µM | TK-10 > 100 µM | U-251 > 100 µM | UACC-257 > 100 µM | UACC-62 > 100 µM | UO-31 > 100 µM | XF498 > 100 µM

FC(F)(F)c1ccc2nc(NCc3ccccc3)c(-c3ccccc3)nc2c1
25.6 µM: HCT-15
active: HOP-92 0.521 µM
inactive: 786-0 20.3 µM | A549 26.9 µM | ACHN 33.2 µM | CCRF-CEM 37.2 µM | COLO 205 37.2 µM | DMS-273 35.2 µM | EKVX 62.2 µM | HCC 2998 29.9 µM | HCT-116 29 µM | HL-60 19.3 µM | HOP-18 35.4 µM | HOP-62 52.1 µM | HT-29 36 µM | KM-20L2 29.5 µM | LOX IMVI 26.3 µM | LXFL 529 43.3 µM | M19-MEL 32.1 µM | MOLT-4 24.7 µM | Malme-3M 25.4 µM | NCI-H226 37.8 µM | NCI-H23 53.7 µM | NCI-H460 41 µM | OVCAR-3 27.6 µM | OVCAR-5 90.2 µM | OVCAR-8 86.3 µM | RPMI-8226 36.4 µM | RXF 393 20.4 µM | SF-268 48.1 µM | SF-295 36 µM | SF-539 30.2 µM | SK-MEL-28 84.9 µM | SK-MEL-2 32.9 µM | SK-OV-3 38.4 µM | SN12C 36.6 µM | SNB-19 46.2 µM | SNB-75 46.2 µM | SNB-78 38.9 µM | SR 24.9 µM | SW-620 49.4 µM | TK-10 29.6 µM | U-251 21 µM | UACC-257 28.1 µM | UACC-62 39 µM | UO-31 25 µM | XF498 15.1 µM
